Experimental data published in patent publication US10703748B2, “Diazanaphthalen-3-yl carboxamides and preparation and use thereof” (Samumed, LLC, priority 2017, dated 2020).
pEC50: −log10 of the molar value.

Key:
[1] = test system: secreted cytokines TNFα, IL-6 and KC-GRO; experiment: Secreted cytokines in Lipopolysaccharide-stimulated BV-2 cells (Table 9 does not say which cytokine); assay type: cell-based, mouse; settings: Mus musculus, BV-2, 5 h; read-out: EC50
Procedure: BV-2 cells (mouse microglial cells) were cultured in 1:1 DMEM medium supplemented with 10% FBS, and 1% penicillin/streptomycin.
BV-2 cells are plated at 35,000 cells/well in a volume of 100 μl for at least 4 hours before compounds are added. […] Compounds were added to cells overnight. […] Supernatant is removed and saved for further cytokine detection. The original plates with seeded cells were tested for cytotoxicity by measure of adenosine triphosphate (ATP) release by adding CellTiter-Glo® diluted 1:4 in distilled water (G7573, Promega) and transferring lysed cells to a completely black 96-well plate to be read with the Cytation3. Supernatant was then diluted 1:2 with a diluent from V-PLEX cytokine Kit and directly tested for the secreted cytokines TNFα, IL-6 and KC-GRO using electrochemiluminescence (Meso Scale Discovery). The standard curve for each cytokine was used to convert the electrochemiluminescent signal into pg of protein per mL.

[2] = test system: Wnt-responsive Sp5-Luc reporter in SW480 colon carcinoma cells; experiment: Screening assay for Wnt activity (Sp5-Luc reporter gene assay); settings: Homo sapiens; for pEC50: SW480; for inhibition at 10 µM: SW480, read-out: percent inhibition at 10 μM
Procedure: The screening assay for Wnt activity is described as follows.
SW480 colon carcinoma cells were transduced with a lentiviral vector expressing luciferase with a human Sp5 promoter consisting of a sequence of eight TCF/LEF binding sites. […] These stably transduced SW480 cells were expanded in cell culture and used for all further screening activities. Each compound was dissolved in DMSO as a 10 mM stock and used to prepare compound source plates. Serial dilution (1:3, 10-point dose-response curves starting from 10 μM) and compound transfer was performed using the ECHO 550 (Labcyte, Sunnyvale, Calif.) into 384-well white solid bottom assay plates (Greiner Bio-One) with appropriate DMSO backfill for a final DMSO concentration of 0.1%. […] Following incubation, 15 μl of BriteLite Plus luminescence reagent (Perkin Elmer) was added to each well of the 384-well assay plates. The plates were placed on an orbital shaker for 2 min and then luminescence was quantified using the Envision (Perkin Elmer) plate reader.

GSK3β kinase = GSK3β kinase (Homo sapiens, UniProt P49841); experiment: GSK3β kinase activity (Ser/Thr 09 peptide Z-lyte FRET assay); assay type: biochemical; settings: recombinant kinase, 46 μM ATP, one hour at room temperature; read-out: EC50
IL-6 = IL-6 inhibition in LPS-stimulated human peripheral blood mononuclear cells (HTRF); settings: Homo sapiens, PBMC; for pEC50: 22 h; for inhibition at 10 µM: read-out: percentage in parentheses after EC50 >10
[3] = test system: SW480 colon carcinoma cells; experiment: Cell viability assay (CellTiter-Glo); settings: Homo sapiens; for pEC50: SW480, 96 h; for inhibition at 10 µM: SW480, read-out: percent inhibition at 10 μM
[4] = test system: Tau phosphorylation at Ser396 (pSer396); experiment: Tau phosphorylation at Ser396 (pSer396) in SH-SY5Y cells, ELISA / western blot; assay type: cell-based, human; settings: Homo sapiens; SH-SY5Y cells, overnight (16-18 h); read-out: pSer396 Tau EC50;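 note: decrease in pSer396 Tau measured in lysates of treated cells by colorimetric ELISA or chemiluminescent western blot, same pSer396 antibody for both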
Procedure: Two days before treatment, cells were seeded onto 96 well plates at 5×10^4 cells/well.
The above synthesized compounds were screened using the cell assay procedure to assess decrease Tau phosphorylation at Ser396 (pSer396) described below.
Cells were lysed with RIPA buffer complemented with phosphatase and protease inhibitors then lysates were spun down at 12,000 g for 10 min to remove any cellular debris.

[5] = test system: α-smooth muscle actin (aSMA) positive LL29 cells; experiment: Inhibition of the fibrotic process: αSMA staining in TGF-β1 treated LL29 fibroblasts from IPF patients; settings: Homo sapiens, Fibroblast, 96 h
DYRK1A kinase = DYRK1A kinase (Homo sapiens, UniProt Q13627); experiment: DYRK1A kinase activity (Ser/Thr 18 peptide Z-lyte FRET assay); assay type: biochemical; settings: recombinant DYRK1A, 30 μM ATP, one hour at room temperature;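 note: kinase activity read as coumarin/fluorescein emission ratio after development step, with unphosphorylated and phosphorylated peptide forms setting 0% and 100% controls, values from dose-response curves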

GSK3β kinase, sequence (P49841 whole entry): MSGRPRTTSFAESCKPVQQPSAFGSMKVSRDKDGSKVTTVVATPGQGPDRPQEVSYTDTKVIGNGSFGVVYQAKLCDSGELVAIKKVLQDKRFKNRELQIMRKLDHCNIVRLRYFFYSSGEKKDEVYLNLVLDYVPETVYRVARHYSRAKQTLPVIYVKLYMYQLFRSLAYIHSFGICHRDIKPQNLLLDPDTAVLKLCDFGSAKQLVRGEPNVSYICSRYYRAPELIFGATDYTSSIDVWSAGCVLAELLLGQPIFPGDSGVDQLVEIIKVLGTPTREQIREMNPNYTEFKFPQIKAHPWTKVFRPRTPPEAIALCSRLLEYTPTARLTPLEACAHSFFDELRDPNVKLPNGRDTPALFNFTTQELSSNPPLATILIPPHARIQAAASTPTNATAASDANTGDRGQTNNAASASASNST

Structure (SMILES) | pEC50 [1] | pEC50 [2] | inhibition at 10 µM [2] [%] | pEC50 (GSK3β kinase) | pEC50 (IL-6) | inhibition at 10 µM (IL-6) [%] | pEC50 [3] | inhibition at 10 µM [3] [%] | pEC50 [4] | pEC50 [5] | pEC50 (DYRK1A kinase)
Cc1ncc(-c2ccc3cnc(NC(=O)C4CCN(C5COC5)CC4)cc3n2)s1 [Compound 4560, N-(2-(2-Methylthiazol-5-yl)-1,6-naphthyridin-7-yl)-1-(oxetan-3-yl) piperidine-4-carboxamide] | 6.93 | < 5.00 | 49.7 | 6.90 | < 5.00 | 2.7 | < 5.00 | 37.5 | 6.00 | 6.11 | 7.85
O=C(Nc1ncc2ccc(-c3cccnc3)cc2n1)C1CC1 [Compound 1670, N-(7-(Pyridin-3-yl)quinazolin-2-yl)cyclopropanecarboxamide] | 5.54 | 5.43 |  | 6.92 | < 5.00 | 7.2 | 5.04 |  | 6.22 | 5.31 | 8.22
Cn1cc(-c2cnc3cnc(NC(=O)C4CCNCC4)cc3c2)cn1 [Compound 2731, N-(3-(1-Methyl-1H-pyrazol-4-yl)-1,7-naphthyridin-6-yl)piperidine-4-carboxamide] | 5.92 | < 5.00 | 30.9 | 5.26 | < 5.00 | 2.8 | < 5.00 | 26.5 | < 5.00 | 5.27 | 7.68
Cn1ncc(-c2cc3cc(NC(=O)C4CC5(C4)CN(CCF)C5)ncc3cn2)c1CN1CCCCC1 [Compound 3907, 2-(2-Fluoroethyl)-N-(6-(1-methyl-5-(piperidin-1-ylmethyl)-1H-pyrazol-4-yl)-2,7-naphthyridin-3-yl)-2-azaspiro[3.3]heptane-6-carboxamide] | 5.33 | 6.44 |  | 7.41 | 5.06 |  | 5.89 |  | 6.44 | 5.74 | 7.32
Cn1cc(-c2ccc3cnc(NC(=O)C4CC4)nc3c2)cn1 [Compound 909, N-(7-(1-Methyl-1H-pyrazol-4-yl)quinazolin-2-yl)cyclopropanecarboxamide] | 5.72 | < 5.00 | 56.1 | 7.60 | 5.31 |  | < 5.00 | 45.6 | 6.43 | 5.86 | 7.89
Cc1nnc(-c2ccc3cnc(NC(=O)C4CCN(C(=O)c5ccccc5)CC4)nc3c2)s1 [Compound 1625, 1-Benzoyl-N-(7-(5-methyl-1,3,4-thiadiazol-2-yl)quinazolin-2-yl)piperidine-4-carboxamide] | 6.36 | < 5.00 | 37.3 | 8.10 | < 5.00 | 4 | < 5.00 | 18.8 | 6.40 | 5.75 | 7.60
Cn1cc(-c2ccc3cnc(NC(=O)C4CCNCC4)cc3n2)cn1 [Compound 11, N-(2-(1-Methyl-1H-pyrazol-4-yl)-1,6-naphthyridin-7-yl)piperidine-4-carboxamide] | 6.03 | 5.50 |  | 7.00 | 5.55 |  | 5.24 |  | 5.46 | 5.60 | 7.85
CC(C)CN1CCC(C(=O)Nc2cc3nc(-c4cnn(C)c4)ccc3cn2)CC1 [Compound 16, 1-Isobutyl-N-(2-(1-methyl-1H-pyrazol-4-yl)-1,6-naphthyridin-7-yl) piperidine-4-carboxamide] | 6.95 | 5.81 |  | 6.56 | < 5.00 | 52.2 | < 5.00 | 45.1 | 6.03 | 6.60 | 7.40
Cn1cc(-c2cnc3cnc(NC(=O)C4CC4)cc3c2)cn1 [Compound 2722, N-(3-(1-Methyl-1H-pyrazol-4-yl)-1,7-naphthyridin-6-yl) cyclopropanecarboxamide] | 6.09 | < 5.00 | 13.7 | 6.49 | 5.05 |  | < 5.00 | 31 | 5.22 | 6.00 | 7.64
Cc1ncc(-c2ccc3cnc(NC(=O)[C@H]4CC[C@H](N(C)C)CC4)cc3n2)s1 [Compound 4559, trans-4-(Dimethylamino)-N-(2-(2-methylthiazol-5-yl)-1,6-naphthyridin-7-yl) cyclohexane-1-carboxamide] | 6.39 | < 5.00 | 40.8 | 6.96 | 5.07 |  | < 5.00 | 44.8 | 5.62 | 6.23 | 7.85
CN1CCN(c2cc(C(=O)Nc3ncc4ccc(-c5cncs5)cc4n3)ccn2)CC1 [Compound 1536, 2-(4-Methylpiperazin-1-yl)-N-(7-(thiazol-5-yl)quinazolin-2-yl)isonicotinamide] | 6.47 | 6.18 |  | 6.68 | < 5.00 | 49.6 | 5.98 |  | 5.93 | 5.95 | 8.40
Cn1cc(-c2cc3cc(NC(=O)C4CCN(S(C)(=O)=O)CC4)ncc3cn2)cn1 [Compound 3699, N-(6-(1-Methyl-1H-pyrazol-4-yl)-2,7-naphthyridin-3-yl)-1-(methylsulfonyl) piperidine-4-carboxamide] | < 5.00 | 6.63 |  | 8.22 | < 5.00 | 8.4 | 5.17 |  | 7.37 | 7.60 | 8.70
CN1CCC(N(C)c2cc(C(=O)Nc3ncc4ccc(-c5cn(C)nn5)cc4n3)ccn2)CC1 [Compound 1288, 2-(Methyl(1-methylpiperidin-4-yl)amino)-N-(7-(1-methyl-1H-1,2,3-triazol-4-yl)quinazolin-2-yl)isonicotinamide] | 5.21 | 7.23 |  | 6.75 | < 5.00 | 9.8 | 5.96 |  | 5.00 | 5.10 | 8.22
O=C(Nc1cc2cc(-c3cnco3)ncc2cn1)C1CCN(C(=O)CN2CCCC2)CC1 [Compound 4159, N-(6-(Oxazol-5-yl)-2,7-naphthyridin-3-yl)-1-(2-(pyrrolidin-1-yl)acetyl) piperidine-4-carboxamide] | 6.07 | 6.01 |  | 7.14 | < 5.00 | 10.1 | 5.07 |  | 6.00 | 6.46 | 8.40
CN1CCC(C(=O)Nc2ncc3ccc(-c4cnsc4)cc3n2)CC1 [Compound 1598, N-(7-(Isothiazol-4-yl)quinazolin-2-yl)-1-methylpiperidine-4-carboxamide] | 5.51 | < 5.00 | 15.5 | 5.38 | < 5.00 | 7.5 | < 5.00 | 8.4 | < 5.00 | 5.90 | 7.57
CN1CCC(C(=O)Nc2cc3cc(-c4cnsc4)ncc3cn2)CC1 [Compound 4319, N-(6-(Isothiazol-4-yl)-2,7-naphthyridin-3-yl)-1-methylpiperidine-4-carboxamide] | 6.29 | 5.82 |  | 6.70 | < 5.00 | 11.4 | < 5.00 | 43 | 6.26 | 5.79 | 7.41
Cc1ncc(-c2ccc3cnc(NC(=O)[C@H]4CC[C@H](CO)CC4)cc3n2)s1 [Compound 4558, trans-4-(Hydroxymethyl)-N-(2-(2-methylthiazol-5-yl)-1,6-naphthyridin-7-yl) cyclohexane-1-carboxamide] | 6.78 | 5.55 |  | 7.00 | 5.03 |  | 5.24 |  | 5.15 | 6.56 | 8.40
O=C(Nc1ncc2ccc(-c3cncs3)cc2n1)[C@H]1CC[C@H](CO)CC1 [Compound 4586, trans-4-(hydroxymethyl)-N-(7-(thiazol-5-yl)quinazolin-2-yl)cyclohexane-1-carboxamide] | 6.42 | < 5.00 | 29.6 | 6.47 | < 5.00 | 4.8 | < 5.00 | 25.1 | 5.06 | 5.35 | 8.70
